Measured values taken from patent publication US8735414B2 (priority 2009, dated 2014).

Legend:
[1] = tested on: bicistronic HCV replicon (replicon RNA, GenBank Accession No. AJ242654); assay: HCV Replicon Assay; type: cell-based; settings: Hepatitis C virus, 72 h, read-out: Replicon IC50

SMILES | IC50 [1] [nM] | melting point [°C]
C[C@H](NS(=O)(=O)c1ccc(-c2c(C#N)c3cc(F)c(OC(F)F)cc3n2C2CCCC2)nc1)C(F)(F)F [compound 574, 6-[3-cyano-1-cyclopentyl-6-(difluoromethoxy)-5-fluoro-1H-indol-2-yl]-N-[(2S)-1,1,1-trifluoropropan-2-yl]pyridine-3-sulfonamide] | < 500 | 181 to 184
C[C@H](NS(=O)(=O)c1ccc(-c2c(C#N)c3cc(F)c(O)cc3n2C2CCCC2)nc1)C(F)(F)F [compound 576, 6-(3-cyano-1-cyclopentyl-5-fluoro-6-hydroxy-1H-indol-2-yl)-N-[(2S)-1,1,1-trifluoropropan-2-yl]pyridine-3-sulfonamide] | < 500 | 214 to 216
Cc1c(F)cc2c(C#N)c(-c3ccc(S(=O)(=O)NC(C)(C)C(F)(F)F)cn3)n(C3CCC3)c2c1F [compound 577, 6-(3-cyano-1-cyclobutyl-5,7-difluoro-6-methyl-1H-indol-2-yl)-N-(1,1,1-trifluoro-2-methylpropan-2-yl)pyridine-3-sulfonamide] | < 500 | 180 to 187
Cc1ccc2c(C#N)c(-c3ccc(S(=O)(=O)NC(C)(C)C(F)(F)F)cn3)n(C3CCC3)c2c1F [compound 578, 6-(3-cyano-1-cyclobutyl-7-fluoro-6-methyl-1H-indol-2-yl)-N-(1,1,1-trifluoro-2-methylpropan-2-yl)pyridine-3-sulfonamide] | < 500 | 168 to 175
Cc1ccc2c(C#N)c(-c3ccc(S(=O)(=O)NC(C)(C)C(F)(F)F)cn3)n(C3CCCC3)c2c1F [compound 579, 6-(3-cyano-1-cyclopentyl-7-fluoro-6-methyl-1H-indol-2-yl)-N-(1,1,1-trifluoro-2-methylpropan-2-yl)pyridine-3-sulfonamide] | < 500 | 203 to 205
Cc1c(F)cc2c(C#N)c(-c3ccc(S(=O)(=O)NC(C)(C)C(F)(F)F)cn3)n(C3CCCC3)c2c1F [compound 580, 6-(3-cyano-1-cyclopentyl-5,7-difluoro-6-methyl-1H-indol-2-yl)-N-(1,1,1-trifluoro-2-methylpropan-2-yl)pyridine-3-sulfonamide] | < 500 | 226 to 232
NC(=O)c1c(-c2ccc(S(=O)(=O)NC(CF)CF)cn2)n(C2CCC2)c2cc(OC(F)F)ccc12 [compound 581, 1-cyclobutyl-6-(difluoromethoxy)-2-{5-[(1,3-difluoropropan-2-yl)sulfamoyl]pyridin-2-yl}-1H-indole-3-carboxamide] | < 500 | 211 to 213
CC(C)(NS(=O)(=O)c1ccc(-c2c(C#N)c3ccc(OC(F)F)cc3n2-c2ccccn2)nc1)C(F)(F)F [compound 583, 6-[3-cyano-6-(difluoromethoxy)-1-(pyridin-2-yl)-1H-indol-2-yl]-N-(1,1,1-trifluoro-2-methylpropan-2-yl)pyridine-3-sulfonamide] | < 500 | 170 to 173
Cc1ccc2c(C#N)c(-c3ccc(S(=O)(=O)NC(C)(C)C(F)(F)F)cn3)n(-c3ccccc3)c2c1 [compound 585, 6-(3-cyano-6-methyl-1-phenyl-1H-indol-2-yl)-N-(1,1,1-trifluoro-2-methylpropan-2-yl)pyridine-3-sulfonamide] | < 500 | 210 to 212
Cc1ccc2c(C#N)c(-c3ncc(S(=O)(=O)NC(CF)CF)cn3)n(C3CCCC3)c2c1F [compound 586, 2-(3-cyano-1-cyclopentyl-7-fluoro-6-methyl-1H-indol-2-yl)-N-(1,3-difluoropropan-2-yl)pyrimidine-5-sulfonamide] | < 500 | 226 to 232
Cc1ccc2c(C#N)c(-c3ccc(S(=O)(=O)NC4(C(F)(F)F)CCC4)cn3)n(C3CCC3)c2c1 [compound 587, 6-(3-cyano-1-cyclobutyl-6-methyl-1H-indol-2-yl)-N-[1-(trifluoromethyl)cyclobutyl]pyridine-3-sulfonamide] | < 500 | 228 to 232
N#Cc1c(-c2ccc(S(=O)(=O)NC3(C(F)(F)F)CCC3)cn2)n(C2CCCC2)c2cc(OC(F)F)ccc12 [compound 588, 6-[3-cyano-1-cyclopentyl-6-(difluoromethoxy)-1H-indol-2-yl]-N-[1-(trifluoromethyl)cyclobutyl]pyridine-3-sulfonamide] | < 500 | 172 to 176
C[C@H](NS(=O)(=O)c1ccc(-c2c(C#N)c3ccc(OC(F)F)cc3n2C2CCCC2)nc1)C(F)(F)F [compound 589, 6-[3-cyano-1-cyclopentyl-6-(difluoromethoxy)-1H-indol-2-yl]-N-[(2S)-1,1,1-trifluoropropan-2-yl]pyridine-3-sulfonamide] | < 500 | 188 to 194
C[C@H](NS(=O)(=O)c1ccc(-c2c(C#N)c3ccc(CC(F)F)cc3n2C2CCC2)nc1)C1CC1 [compound 590, 6-[3-cyano-1-cyclobutyl-6-(2,2-difluoroethyl)-1H-indol-2-yl]-N-[(1S)-1-cyclopropylethyl]pyridine-3-sulfonamide] | < 500 | 146 to 155
C[C@H](NS(=O)(=O)c1cnc(-c2c(C#N)c3ccc(CC(F)F)cc3n2C2CCC2)nc1)C1CC1 [compound 592, 2-[3-cyano-1-cyclobutyl-6-(2,2-difluoroethyl)-1H-indol-2-yl]-N-[(1S)-1-cyclopropylethyl]pyrimidine-5-sulfonamide] | < 500 | 168 to 175
N#Cc1c(-c2ccc(S(=O)(=O)NC(CF)CF)cn2)n(C2CCCC2)c2cc(CC(F)F)ccc12 [compound 593, 6-[3-cyano-1-cyclopentyl-6-(2,2-difluoroethyl)-1H-indol-2-yl]-N-(1,3-difluoropropan-2-yl)pyridine-3-sulfonamide] | < 500 | 178 to 184
C[C@H](NS(=O)(=O)c1ccc(-c2c(C#N)c3ccc(CC(F)F)cc3n2C2CCCC2)nc1)C(F)(F)F [compound 595, 6-[3-cyano-1-cyclopentyl-6-(2,2-difluoroethyl)-1H-indol-2-yl]-N-[(2S)-1,1,1-trifluoropropan-2-yl]pyridine-3-sulfonamide] | < 500 | 181 to 189
CC(C)(NS(=O)(=O)c1ccc(-c2c(C#N)c3ccc(CC(F)F)cc3n2C2CCCC2)nc1)C(F)(F)F [compound 596, 6-[3-cyano-1-cyclopentyl-6-(2,2-difluoroethyl)-1H-indol-2-yl]-N-(1,1,1-trifluoro-2-methylpropan-2-yl)pyridine-3-sulfonamide] | < 500 | 194 to 199
C[C@H](NS(=O)(=O)c1cnc(-c2c(C#N)c3ccc(CC(F)F)cc3n2C2CCCC2)nc1)C1CC1 [compound 597, 2-[3-cyano-1-cyclopentyl-6-(2,2-difluoroethyl)-1H-indol-2-yl]-N-[(1S)-1-cyclopropylethyl]pyrimidine-5-sulfonamide] | < 500 | 181 to 189
CC(C)NS(=O)(=O)c1cnc(-c2c(C#N)c3ccc(CC(F)F)cc3n2C2CCCC2)nc1 [compound 598, 2-[3-cyano-1-cyclopentyl-6-(2,2-difluoroethyl)-1H-indol-2-yl]-N-(propan-2-yl)pyrimidine-5-sulfonamide] | < 500 | 204 to 218
N#Cc1c(-c2ncc(S(=O)(=O)NC(CF)CF)cn2)n(C2CCCC2)c2cc(CC(F)F)ccc12 [compound 599, 2-[3-cyano-1-cyclopentyl-6-(2,2-difluoroethyl)-1H-indol-2-yl]-N-(1,3-difluoropropan-2-yl)pyrimidine-5-sulfonamide] | < 500 | 174 to 210
C[C@H](NS(=O)(=O)c1cnc(-c2c(C#N)c3ccc(CC(F)F)cc3n2C2CCCC2)nc1)C(F)(F)F [compound 600, 2-[3-cyano-1-cyclopentyl-6-(2,2-difluoroethyl)-1H-indol-2-yl]-N-[(2S)-1,1,1-trifluoropropan-2-yl]pyrimidine-5-sulfonamide] | < 500 | 240 to 246
C[C@H](NS(=O)(=O)c1ccc(-c2c(C#N)c3cc(F)ccc3n2-c2ncccn2)nc1)C(F)(F)F [compound 601, 6-[3-cyano-5-fluoro-1-(pyrimidin-2-yl)-1H-indol-2-yl]-N-[(2S)-1,1,1-trifluoropropan-2-yl]pyridine-3-sulfonamide] | < 500 | 201 to 203
CC(C)(NS(=O)(=O)c1ccc(-c2c(C#N)c3cc(F)ccc3n2-c2ncccn2)nc1)C(F)(F)F [compound 602, 6-[3-cyano-5-fluoro-1-(pyrimidin-2-yl)-1H-indol-2-yl]-N-(1,1,1-trifluoro-2-methylpropan-2-yl)pyridine-3-sulfonamide] | 500 to 2000 | 231 to 234
CC(C)NS(=O)(=O)c1cnc(-c2c(C#N)c3cc(F)ccc3n2C2CCCC2)nc1 [compound 603, 2-(3-cyano-1-cyclopentyl-5-fluoro-1H-indol-2-yl)-N-(propan-2-yl)pyrimidine-5-sulfonamide] | < 500 | 217 to 222
CC(C)n1c(-c2ccc(S(=O)(=O)N[C@@H](C)C3CC3)cn2)c(C#N)c2cc(F)ccc21 [compound 604, 6-[3-cyano-5-fluoro-1-(propan-2-yl)-1H-indol-2-yl]-N-[(1S)-1-cyclopropylethyl]pyridine-3-sulfonamide] | < 500 | 138 to 143
Cc1ccc2c(C#N)c(-c3ncc(S(=O)(=O)N[C@@H](C)C(F)(F)F)cn3)n(C3CCCCC3)c2c1 [compound 605, 2-(3-cyano-1-cyclohexyl-6-methyl-1H-indol-2-yl)-N-[(2S)-1,1,1-trifluoropropan-2-yl]pyrimidine-5-sulfonamide] | < 500 | 257 to 260
Cc1ccc2c(c1)c(C#N)c(-c1ccc(S(=O)(=O)N[C@@H](C)C3CC3)cn1)n2C1CCCCC1 [compound 606, 6-(3-cyano-1-cyclohexyl-5-methyl-1H-indol-2-yl)-N-[(1S)-1-cyclopropylethyl]pyridine-3-sulfonamide] | < 500 | 169 to 174
